Data reported in patent US20190083498A1, “THERAPIES FOR HEMATOLOGIC MALIGNANCIES” (GILEAD CALISTOGA LLC, priority 2008, published 2019).

Assays:
INA-6 cells = experiment: SCID-hu model, INA-6 cells in human bone chip, serum shuIL-6R ELISA; type: in vivo, SCID mice; conditions: 10 or 30 mg/kg daily for 4 weeks
Procedure: Human fetal bone grafts were implanted into CB17 SCID-mice (SCID-hu). Four weeks following bone implantation, 2.5×10^6 INA-6 cells were injected directly into the human BM cavity in the graft in a final volume of 100 μl of RPMI-1640 medium. An increase in the levels of soluble human IL-6 receptor (shulL-6R) from INA-6 cells was used as an indicator of MM cell growth and burden of disease in SCID-hu mice. Mice developed measurable serum shulL-6R approximately 4 weeks following INA-6 cell injection, and then received either 10 or 30 mg/kg drug or vehicle alone daily for […]. Blood samples were collected and assessed for shulL-6R levels using an enzyme-linked immunosorbent assay (ELISA, R&D Systems. Minneapolis Minn.).
Growth of INA-6 cells engrafted in human bone chips in SCID mice was monitored by serial serum measurements of shulL-6R. […] Error bars indicate SD (±).
In order to examine the activity of compound II on MM cell growth in the context of the human BM microenvironment in vivo, a SCID-hu model was used in which IL-6 dependent INA-6 cells are directly injected into a human bone chip implanted subcutaneously in SCID-mice. This model recapitulates the human BM microenvironment with human IL-6/BMSC-dependent growth of INA-6 human MM cells. These SCID-hu mice were treated with compound II or vehicle alone daily for 4 weeks, and serum shulL-6R monitored as a marker tumor burden. […]

LB cells = experiment: Subcutaneous human MM xenograft model; type: in vivo
Procedure: CB17 SCID mice (48-54 days old) were purchased from Charles River Laboratories (Wilmington, Mass.). All animal studies were conducted according to protocols approved by the Animal Ethics Committee of the Dana-Farber Cancer Institute. Mice were inoculated subcutaneously in the right flank with 3×10^6 LB cells in 100 μL RPMI-1640. When tumors were palpable, mice were assigned into the treatment groups receiving 10 mg/kg or 30 mg/kg gavages twice daily; and 7 mice in the control group receiving vehicle alone. Caliper measurements of the longest perpendicular tumor diameters were performed every alternate day to estimate the tumor volume using the following formula representing the 3D volume of an ellipse: 4/3× (width/2)2× (length/2). Animals were sacrificed when tumors reached 2 cm or the mice appeared moribund. Survival was evaluated from the first day of treatment until death. […] The images were captured with a canon IXY digital 700 camera. Ex vivo analysis of tumor images was captured with a LEICA DM IL microscope and LEICA DFC300 FX camera at 40 u/0.60 (Leica, Heidelberg, Germany).
Mean tumor volume was calculated as in Materials and Methods, FIG. 36A. Error bars represent SD (±).
Tumors harvested from Compound II (30 mg/kg) treated mouse (right panel) and control mouse (left panel) were subjected to immuno-histochemistric analysis using CD31 and P-AKT Abs. CD31 and P-AKT positive cells are dark brown, FIG. 36D.
Survival was evaluated from the first day of treatment until sacrifice using Kaplan-Meier curves, FIG. 36C.
Tumor tissues were harvested from mice treated with control vehicle or Compound II (30 mg/kg). Protein levels of phosphorylated of PDK-1 and AKT (Ser473) were determined by western blotting of cell lysates, FIG. 36E. Actin was used as a loading control.

[1] = test system: CLL cells with or without StromaNKTert; experiment: CLL cell viability/apoptosis in stromal co-culture, Annexin V/PI FACS; type: cell-based, human; conditions: 100 nM alone; two patients; 24 hours
Procedure: CLL cell and stromal cell co-cultures: CLL cells were cultured under standardized conditions on stromal cell lines or primary NLC. Briefly, stromal cells were seeded one day prior to each experiment onto 24-well plates (Corning Life Sciences) at a concentration of 3×10^5 cells/mL/well and incubated at 37° C. in 5% CO2. Stromal cell confluence was confirmed by phase contrast microscopy, and CLL cells were then added onto the stromal cell layer at a concentration of 3×10^6 cells/mL. Cultures were then treated with compounds for the specified time periods. CLL cells were removed for analysis by gentle pipetting with media, and were then washed in PBS prior to analysis. A 24-hour co-culture time point was used unless otherwise indicated.
Cell viability testing and reagents: CLL cell viability was determined by analysis of Annexin V-FITC (BD Biosciences, San Diego, Calif.) and Propidium Iodine (PI) (Sigma) by FACS.
To determine whether PI3K inhibition increased the sensitivity of stroma-exposed CLL cells by increasing priming, PB-derived CLL cells cultured with or without StromaNKTert cells for 24 hours and were examined using Annexin-PI and BH3 profiling. […] Stromal co-culture of four CLL patient samples led to protection from apoptosis in untreated cells.

Class III PI3K hVPS34 = Class III PI3K hVPS34 (Homo sapiens, UniProt Q8NEB9); conditions: read-out: Class III PI3K, IC50 hVPS34; InvitroGen Adapta assay
class II PI3K CIIbeta = class II PI3K CIIbeta (Homo sapiens, UniProt O00750); experiment: IC50 profile across kinases, InvitroGen Adapta assay; type: biochemical
INA-6 and LB cells = experiment: Growth of MM cells treated with 3-MA; type: cell-based, human; conditions: up to 100 μM; 24 h
Procedure: P110 δ positive LB cells (♦) were treated with 3-MA (0-100 μM) for 24 h. Data represent means (±SD) of triplicate cultures.

Sequence of class II PI3K CIIbeta (O00750 whole entry): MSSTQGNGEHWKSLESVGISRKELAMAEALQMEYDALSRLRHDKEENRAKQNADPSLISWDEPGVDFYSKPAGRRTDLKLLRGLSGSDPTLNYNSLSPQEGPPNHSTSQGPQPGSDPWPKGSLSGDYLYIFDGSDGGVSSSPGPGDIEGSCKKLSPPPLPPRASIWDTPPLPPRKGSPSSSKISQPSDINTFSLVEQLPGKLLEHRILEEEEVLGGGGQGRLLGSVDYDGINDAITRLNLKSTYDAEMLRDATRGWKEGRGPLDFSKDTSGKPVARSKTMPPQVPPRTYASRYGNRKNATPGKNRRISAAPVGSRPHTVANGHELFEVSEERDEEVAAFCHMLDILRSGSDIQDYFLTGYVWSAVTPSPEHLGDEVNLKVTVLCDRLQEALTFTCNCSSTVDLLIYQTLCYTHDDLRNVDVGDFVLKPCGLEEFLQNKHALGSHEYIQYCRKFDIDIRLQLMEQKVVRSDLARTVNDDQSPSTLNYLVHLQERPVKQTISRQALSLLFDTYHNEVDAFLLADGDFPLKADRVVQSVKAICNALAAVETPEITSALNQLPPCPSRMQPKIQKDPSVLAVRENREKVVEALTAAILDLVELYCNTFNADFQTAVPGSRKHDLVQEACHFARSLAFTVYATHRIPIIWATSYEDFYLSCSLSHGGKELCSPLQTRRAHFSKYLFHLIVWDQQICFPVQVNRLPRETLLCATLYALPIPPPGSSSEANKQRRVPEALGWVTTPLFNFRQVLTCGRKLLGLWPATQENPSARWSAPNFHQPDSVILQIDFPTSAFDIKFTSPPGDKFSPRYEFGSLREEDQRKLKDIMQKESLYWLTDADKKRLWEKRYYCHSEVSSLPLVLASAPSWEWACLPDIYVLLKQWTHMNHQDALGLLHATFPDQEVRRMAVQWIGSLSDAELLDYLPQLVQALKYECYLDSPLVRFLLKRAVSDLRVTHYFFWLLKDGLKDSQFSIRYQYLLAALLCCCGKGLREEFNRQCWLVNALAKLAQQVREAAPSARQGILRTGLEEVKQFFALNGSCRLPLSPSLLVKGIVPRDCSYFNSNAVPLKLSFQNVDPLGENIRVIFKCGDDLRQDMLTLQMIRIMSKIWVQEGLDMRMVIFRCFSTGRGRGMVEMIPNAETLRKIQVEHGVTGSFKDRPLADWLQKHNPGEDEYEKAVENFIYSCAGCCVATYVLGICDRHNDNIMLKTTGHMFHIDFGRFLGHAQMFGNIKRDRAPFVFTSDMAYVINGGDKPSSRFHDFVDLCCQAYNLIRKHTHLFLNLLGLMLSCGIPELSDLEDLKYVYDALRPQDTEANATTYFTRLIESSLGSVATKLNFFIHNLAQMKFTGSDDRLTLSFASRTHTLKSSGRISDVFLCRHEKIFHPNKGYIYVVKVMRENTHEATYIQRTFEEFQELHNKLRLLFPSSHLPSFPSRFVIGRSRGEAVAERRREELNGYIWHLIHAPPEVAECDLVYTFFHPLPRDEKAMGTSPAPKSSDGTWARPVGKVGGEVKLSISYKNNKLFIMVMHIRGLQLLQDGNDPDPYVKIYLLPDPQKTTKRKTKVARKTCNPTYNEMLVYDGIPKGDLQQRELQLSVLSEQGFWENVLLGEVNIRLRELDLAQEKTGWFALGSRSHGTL
Sequence of Class III PI3K hVPS34 (Q8NEB9 whole entry): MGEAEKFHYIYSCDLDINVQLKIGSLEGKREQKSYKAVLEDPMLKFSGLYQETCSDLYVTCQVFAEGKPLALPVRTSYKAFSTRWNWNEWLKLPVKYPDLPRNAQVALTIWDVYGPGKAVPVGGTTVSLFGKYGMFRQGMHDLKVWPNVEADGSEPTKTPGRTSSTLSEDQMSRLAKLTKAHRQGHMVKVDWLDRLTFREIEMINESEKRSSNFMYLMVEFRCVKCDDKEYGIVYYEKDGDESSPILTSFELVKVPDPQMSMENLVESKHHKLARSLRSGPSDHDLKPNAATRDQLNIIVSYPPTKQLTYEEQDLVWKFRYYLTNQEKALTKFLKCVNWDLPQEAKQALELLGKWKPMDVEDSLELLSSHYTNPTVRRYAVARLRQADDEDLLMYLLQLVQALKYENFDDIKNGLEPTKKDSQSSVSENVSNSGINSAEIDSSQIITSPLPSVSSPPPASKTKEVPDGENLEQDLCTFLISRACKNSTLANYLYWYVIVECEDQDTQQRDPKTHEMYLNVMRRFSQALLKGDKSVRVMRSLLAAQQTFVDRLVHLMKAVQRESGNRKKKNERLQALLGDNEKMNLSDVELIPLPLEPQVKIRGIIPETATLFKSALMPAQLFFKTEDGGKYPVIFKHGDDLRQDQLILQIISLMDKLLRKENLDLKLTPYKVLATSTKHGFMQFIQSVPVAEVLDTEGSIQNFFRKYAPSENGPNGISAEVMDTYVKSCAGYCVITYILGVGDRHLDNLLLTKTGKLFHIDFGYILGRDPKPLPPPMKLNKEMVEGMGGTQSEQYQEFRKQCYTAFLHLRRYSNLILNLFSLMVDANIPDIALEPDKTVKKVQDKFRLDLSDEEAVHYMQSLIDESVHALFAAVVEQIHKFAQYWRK

Structure (SMILES): CC(Nc1ncnc2[nH]cnc12)c1nc2ccc(F)cc2c(=O)n1-c1ccccc1 (stereo not drawn) [Compound II, 2-(1-(9H-purin-6-ylamino)ethyl)-6-fluoro-3-phenylquinazolin-4(3H)-one]
- tumor growth (serum shuIL-6R) (INA-6 cells): significantly inhibited tumor growth
- MM tumor growth (LB cells; 10 mg/kg or 30 mg/kg orally twice a day, n=7): significantly reduced
- CD31 positive cells and microvessel density (LB cells; 30 mg/kg): significantly decreased
- p-Akt and p-PDK-1 in tumor (LB cells; 30 mg/kg, immunohistochemical and immunoblot analysis): significantly inhibited
- body weight (LB cells; mouse, in vivo): did not affect body weight

Structure (SMILES): CN(C)CC[C@H](CSc1ccccc1)Nc1ccc(S(=O)(=O)NC(=O)c2ccc(N3CCN(Cc4ccccc4-c4ccc(Cl)cc4)CC3)cc2)cc1[N+](=O)[O-] [ABT-737, reference compound]
- CLL cell viability in stromal co-culture, single agent [1]: profound stroma-mediated resistance

Structure (SMILES): Cn1c(=O)n(-c2ccc(C(C)(C)C#N)cc2)c2c3cc(-c4cnc5ccccc5c4)ccc3ncc21 [NVP-BEZ-235]
- IC50 (Class III PI3K hVPS34): 6 nM
- IC50 (class II PI3K CIIbeta): 3 nM

Structure (SMILES): Cn1cnc(N)c2ncnc1-2 [Compound 3-MA, 3-Methyladenine]
- cytotoxicity in INA-6 and LB cells (INA-6 and LB cells): No cytotoxicity
